Data: patent US20200316050A1, “A TOPICAL COMPOSITION BASED ON NIACINAMIDE DERIVATIVE” (Conopco, Inc., d/b/a UNILEVER, priority 2017, published 2020)

System: Human neonatal primary skin keratinocyte (NHEK) cells
Experiment: psoriasin (AMP marker) secretion by human keratinocytes, ELISA of culture supernatant
Format: cell-based
Conditions: 72 hours incubation, KGM with 2 mM calcium chloride
Description: Step 1: Human neonatal primary skin keratinocyte (NHEK) cells was obtained from Lonza ®. The experiment was done with the above-mentioned cells with passage between 3 and 4. Then, the cells were seeded (35,000 cells/well) in 24 well plate with keratinocyte growth media (KGM) obtained from Invitrogen®. The plate was then incubated at 37±2° C. in a CO2 incubator for 48 hours.
Step 2: After 48 hours of incubation, cell differentiation was induced by replacing media with fresh KGM supplemented with 2 mM calcium chloride solution. This was then followed by incubation at 37±2° C. in a CO2 incubator for 48 hours.
Step 3: After that, the cells were treated with different concentration (as outlined table 1 below) of N-cyclopentyl nicotinamide, with keratinocyte growth media supplemented with 2mM calcium chloride solution:
Step 4: After the above treatment, cells were again incubated at 37±2° C. in a CO2 incubator for 72 hours.
Step 5: After 72 hours of incubation, cell culture supernatant from each well was collected in a sterile tube. The samples were then stored at -80° C. until used for testing psoriasin secretion by standard ELISA technique using psoriasin ELISA kit obtained from Circulx® (No: CY-8073). In the current experiment, psoriasin was used as a marker for AMP.
Step 6: The ELISA method was performed by using 100 μL of cell culture supernatant from each sample.
The data is expressed in terms of fold change over control (no treatment:
Example A). The fold change in psoriasin levels in case of control (example A) is taken to be equal to 1 fold. Any fold change in psoriasin obtained due to treatments outlined in all the other examples was over and above the 1 fold change obtained from the control.

| Structure (SMILES) | Fold Change in psoriasin levels over control (no treatment, Example A = 1) (200 μg/mL) [fold] | Fold Change in psoriasin levels over control (no treatment, Example A = 1) (500 μg/mL) [fold] | Fold Change in psoriasin levels over control (no treatment, Example A = 1) (400 μg/mL) [fold] |
| --- | --- | --- | --- |
| NC(=O)c1cccnc1 [B, Niacinamide] | 0.9 | 1.4 | – |
| O=C(NC1CCCC1)c1cccnc1 [Example 1, N-cyclopentyl nicotinamide] | 2.06 | – | 2.84 |
